Consider 13 compounds from patent US4914091A, “Esters of cephalosporin derivitives” (American Cyanamid Company, priority 1984, dated 1990).

Assay [1] has as its system Klebsiella pneumoniae. Briefly: In vivo activity against lethal intraperitoneal Klebsiella pneumoniae infection in mice, single oral or subcutaneous dose. The settings on record: CD-1 mice. Also on record: species or system Klebsiella pneumoniae (infection in Charles River CD-1 mice). From the text: Other representative compounds of the present invention were similarly tested against a lethal infection of Klebsiella pneumoniae in mice. Charles River CD-1 mice, each weighing about 20 g, were infected intraperitoneally with a lethal dose of Klebsiella pneumoniae. The median effective doses (ED50) in mg/kg were derived from the pooled data of three separate tests (including two range finding tests). The control, 7β-[2-(2-amino thiazol-4-yl)-(Z)-2-methoximinoacetamido]-3-[(1,2,3-thiadiazol-5-yl)-thiomethyl]ceph-3-em-4-carboxylic acid, provides a basis for comparison. All compounds were administered by single subcutaneous dose and single oral dose.

Assay [2] has as its system Escherichia coli No. 311. Put plainly: In vivo activity against lethal intraperitoneal Escherichia coli No. 311 infection in mice, single oral or subcutaneous dose. Further details: species or system Escherichia coli (infection in Charles River CD-1 mice). As to conditions: E. coli No. 311, CD-1 mice; for ED50: Escherichia coli, pooled data of three tests (cefaclor: estimated from two separate tests). The protocol:
To establish the pro-drug activity of, for example, the pivaloyloxymethyl ester of 7β-[2-(2-aminothiazol-4-yl)-(Z)-2-methoximinoacetamido]-3-[(1,2,3-thiadiasol-5-yl)-thiomethyl]ceph-3-em-4-carboxylic acid, the unesterified carboxylic acid and cefaclor (as control) were administered by single subcutaneous dose and single oral dose to separate groups of Charles River CD-1 mice, each weighing about 20 g, which mice had been infected intraperitoneally with a lethal dose of Escherichia coli No. 311. The median effective doses (ED50) in mg/kg were derived from the pooled data of three separate tests (including two range finding tests. The results of this testing appear in Table I.

[3] abbreviates: single oral dose, pooled data of three tests, (95% Conf. Lim.), read-out: ED50, Single Oral Dose.
Where [4] appears, read: sc, single subcutaneous dose, pooled data of three tests, (95% Conf. Lim.), read-out: ED50, Single Subcut. Dose.
[5] abbreviates: sc, single subcutaneous dose, read-out: ED50, Single Subcut. Dose.
Where [6] appears, read: single oral dose, read-out: ED50, Single Oral Dose.

Like-named read-outs stand apart in the source and are kept apart here.

In the case of `CO/N=C(\C(=O)N[C@@H]1C(=O)N2C(C(=O)OC(C)OC(C)=O)=C(CSc3cnns3)CS[C@H]12)c1csc(N)n1` (stereo partly drawn) [Acetoxyethyl ester, Acetoxyethyl 7β-[2-(2-aminothiazol-4-yl)-(Z)-2-methoximinoacetamido]-3-[(1,2,3-thiadiazol-5-yl)-thiomethyl]ceph-3-em-4-carboxylate], the “Ratio Oral ED50 / Subcutaneous ED50” value in assay [1] came out at 2. Also, the values for the ED50 in assay [1] (setting [3]) and in assay [1] (setting [4]) were 2 to 4 mg/kg and 1 to 2 mg/kg, respectively.
For the compound `CO/N=C(\C(=O)N[C@@H]1C(=O)N2C(C(=O)OCOC(C)=O)=C(CSc3cnns3)CS[C@H]12)c1csc(N)n1` [Acetoxymethyl, Acetoxymethyl 7β-[2-(2-aminothiazol-4-yl)-(Z)-2-methoximinoacetamido]-3-[(1,2,3-thiadiazol-5-yl)thiomethyl]ceph-3-em-4-carboxylate], the “Ratio Oral ED50 / Subcutaneous ED50” value in assay [1] turned out to be 8. The values for the median effective dose (ED50) in assay [1] (setting [3]) and in assay [1] (setting [4]) were 8 to 16 mg/kg and 1 to 2 mg/kg, respectively.
In the same order, the values of `CO/N=C(\C(=O)N[C@@H]1C(=O)N2C(C(=O)OCOC(=O)C34CC5CC(CC(C5)C3)C4)=C(CSc3cnns3)CS[C@H]12)c1csc(N)n1` [Adamantylcarbonyl-oxymethyl, Adamantane-1-carbonyloxymethyl-7β-[2-(2-aminothiazol-4-yl)-(Z)-2-methoximinoacetamido]-3-[(1,2,3-thiadiazol-5-yl)-thiomethyl]ceph-3-em-4-carboxylate] are 2, 2 to 4 mg/kg and 1 to 2 mg/kg.
With `N[C@@H](C(=O)N[C@@H]1C(=O)N2C(C(=O)O)=C(Cl)CS[C@H]12)c1ccccc1` [Cefaclor], in assay [2], the “Ratio Oral ED50 / Subcutaneous ED50” value is given as 2.8. Moreover, the figures for the 50% effective dose (ED50) in assay [2] (setting [5]) and in assay [2] (setting [6]) were 5.7 mg/kg and 16 mg/kg, respectively.
As for `CCCCCCCCCCOCOC(=O)C1=C(CSc2cnns2)CS[C@@H]2[C@H](NC(=O)/C(=N\OC)c3csc(N)n3)C(=O)N12` [Declyoxymethyl ester, Decyloxymethyl 7β-[2-(2-aminothiazol-4-yl)-(Z)-2-methoximinoacetamido]-3-[(1,2,3-thiadiazol-5-yl)-thiomethyl]ceph-3-em-4-carboxylate], the “Ratio Oral ED50 / Subcutaneous ED50” value in assay [1] turned out to be 4. Further, the values for the median effective dose (ED50) in assay [1] (setting [3]) and in assay [1] (setting [4]) were 8 to 16 mg/kg and 2 to 4 mg/kg, respectively.
In the same order, the values of `CCOC(=O)OC(C)OC(=O)C1=C(CSc2cnns2)CS[C@@H]2[C@H](NC(=O)/C(=N\OC)c3csc(N)n3)C(=O)N12` (stereo partly drawn) [Ethoxycarbonyl-Ethoxyethyl ester] are 2, 1 to 2 mg/kg and 0.5 to 1 mg/kg.
In the same order, the values of `COCOC(=O)C1=C(CSc2cnns2)CS[C@@H]2[C@H](NC(=O)/C(=N\OC)c3csc(N)n3)C(=O)N12` [Methoxymethyl ester, Methoxymethyl 7β-[2-(2-aminothiazol-4-yl)-(Z)-2-methoximinoacetamido]-3-[(1,2,3-thiadiazol-5-yl)-thiomethyl]ceph-3-em-4-carboxylate] are 16, 8 to 16 mg/kg and 0.5 to 1 mg/kg.
In the same order, the values of `CCCCCCCCCCCCCC(=O)OCOC(=O)C1=C(CSc2cnns2)CS[C@@H]2[C@H](NC(=O)/C(=N\OC)c3csc(N)n3)C(=O)N12` [Myristoyloxymethyl ester, Myristoyloxymethyl 7β-[2-(2-aminothiazol-4-yl)-(Z)-2-methoximinoacetamido]-3-[(1,2,3-thiadiazol-5-yl)-thiomethyl]ceph-3-em-4-carboxylate] are 16, 8 to 16 mg/kg and 0.5 to 1 mg/kg.
Turning to `CO/N=C(\C(=O)N[C@@H]1C(=O)N2C(C(=O)OC3OC(=O)c4ccccc43)=C(CSc3cnns3)CS[C@H]12)c1csc(N)n1` (stereo partly drawn) [Phthalidyl ester, Phthalidyl 7β-[2-(2-aminothiazol-4-yl)-(Z)-2-methoximinoacetamido]-3-[(1,2,3-thiadiazol-5-yl)-thiomethyl]ceph-3-em-4-carboxylate], in assay [1], the “Ratio Oral ED50 / Subcutaneous ED50” value worked out at 16. Besides, the ED50 in assay [1] (setting [3]) was in the range of 8 to 16 mg/kg; in assay [1] (setting [4]), 0.5 to 1 mg/kg.
`CO/N=C(\C(=O)N[C@@H]1C(=O)N2C(C(=O)OCOC(=O)C(C)(C)C)=C(CSc3cnns3)CS[C@H]12)c1csc(N)n1` [Pivaloyloxymethyl ester, Pivaloyloxymethyl 7β-[2-(2-aminothiazol-4-yl)-(Z)-2-methoximinoacetamido]-3-[(1,2,3-thiadiazol-5-yl)-thiomethyl]ceph-3-em-4-carboxylate]: the “Ratio Oral ED50 / Subcutaneous ED50” value in assay [2] was determined as 3.8. Besides, the median effective dose (ED50) in assay [2] (setting [5]) is 0.53 mg/kg; in assay [2] (setting [6]) it was 2 mg/kg.
Consider `CO/N=C(\C(=O)N[C@@H]1C(=O)N2C(C(=O)O)=C(CSc3cnns3)CS[C@H]12)c1csc(N)n1` [Unesterified acid, 7β-[2-(2-aminothiazol-4-yl)-(Z)-2-methoximinoacetamido]-3-[(1,2,3-thiadiazol-5-yl)-thiomethyl]ceph-3-em-4-carboxylic acid, reference compound], for which the “Ratio Oral ED50 / Subcutaneous ED50” value in assay [1] came to 16; in assay [2], 28. The ED50 is 8 to 16 mg/kg in assay [1] (setting [3]), 0.5 to 1 mg/kg in assay [1] (setting [4]), 0.26 mg/kg in assay [2] (setting [5]) and 7.2 mg/kg in assay [2] (setting [6]).
For `CO/N=C(\C(=O)N[C@@H]1C(=O)N2C(C(=O)OCOC(=O)c3ccccc3)=C(CSc3cnns3)CS[C@H]12)c1csc(N)n1` [benzoyloxymethyl ester, Benzoyloxymethyl 7β-[2-(2-aminothiazol-4-yl)-(Z)-2-methoximinoacetamido]-3-[(1,2,3-thiadiazol-5-yl)-thiomethyl]ceph-3-em-4-carboxylate], the “Ratio Oral ED50 / Subcutaneous ED50” value in assay [1] is on record as 2. For the same compound, the values for the ED50 in assay [1] (setting [3]) and in assay [1] (setting [4]) were 4 to 8 mg/kg and 2 to 4 mg/kg, respectively.
“Methylthiomethyl 7β-[2-(2-aminothiazol-4-yl)-(Z)-2-methoximinoacetamido]-3-[(1,2,3-thiadiazol-5-yl)-thiomethyl]ceph-3-em and ceph-2-em-carboxylate [methylthiomethyl ester]”: the “Ratio Oral ED50 / Subcutaneous ED50” value in assay [1] is listed as 4. For the same compound, the “ED50, Single Oral Dose” value in assay [1] (single oral dose, pooled data of three tests, (95% Conf. Lim.)) was in the range of 8 to 16 mg/kg. The “ED50, Single Subcut. Dose” value in assay [1] (single subcutaneous dose, pooled data of three tests, (95% Conf. Lim.)) was 2 to 4 mg/kg.

Broadly, the ED50 is the midpoint of the dose-response relation.
